One assay concerns SHH expression. Put plainly: Pancreatic SHH mRNA expression (qPCR) in P48-Cre; LSL-K-rasG12D mice. It counts as in vivo, mouse. Particulars: 60 mg/kg/day IP x 10 days, mice 7-9 months old, vs untreated age-matched mice, n=1/group. On the procedure: FIG. 19. ATM inhibits induction of SHH expression in mPanINs of P48-Cre; LSL-K-ras^G12D mice. Three older P48-Cre; LSL-K-ras^G12D mice (7-9 months of age) were administered ATM (60 mg/kg/day) by IP injection for 10 days. mRNA was isolated from pancreata from treated, and untreated, age-matched P48-Cre; LSL-K-ras^G12D mice and analyzed by qPCR analysid for expression of SHH. n=1/group.
(§1) ATM reduced mPanIN proliferation and SHH expression. In order to investigate the potential therapeutic role of ATM in pancreatic cancer, acute ATM treatment (60 mg/kg/day×10 days) of older P48-Cre; LSL-K-rasG12D mice (PC/+, Ras/+; 7-9 months old, they have already developed PanINs and adenomas) was performed. […] These same mice were analyzed for pancreatic expression of SHH. SHH increased in expression in P48-Cre; LSL-K-rasG12D mice, similar to PKCι.

Assay [1] relates to Panc-1, Capan-1, and MiaPaCa-2 human pancreatic cancer cells. In words: Soft agar colony formation (anchorage-independent growth). Type of assay: cell-based. Particulars: range over three PDAC cell lines (Panc-1, Capan-1, Miapaca-2); increasing concentrations. On the procedure:
(§2) FIG. 13. Aurothiomalate (ATM) inhibits PDAC cells soft agar colony formation and invasion. A) Dose response curves to the growth inhibitory effects of ATM on soft agar colony formation in Panc-1, Capan-1, and MiaPaCa-2 human pancreatic cancer cells. B) Panc-1 cells were pre-incubated in increasing concentrations of ATM and then assayed for in vitro invasion through Matrigel matrix.
Panc-1 and MiaPaCa-2 cells (5×10^3) were plated in soft agar and assessed for anchorage-independent growth as described elsewhere (Regala et al., J. Biol. Chem., 280:31109-15 (2005)).
(§3) Three PDAC cell lines (Panc-1, Capan-1, and Miapaca-2), expressing varying amounts of PKCι (FIG. 13), were assayed for the ability to form colonies in soft agar (anchorage-independent growth) in the presence of increasing concentrations of aurothiomalate (ATM, FIG. 13A).

In assay [2] the test system is mPanINs of P48-Cre; LSL-K-rasG12D mice. In words: mPanIN proliferation by BrdU incorporation (IHC) in P48-Cre; LSL-K-rasG12D mice. It counts as in vivo, mouse. Particulars: 60 mg/kg/day IP x 10 days, mice 7-9 months old, vs untreated age-matched mice, n=3/group. On the procedure:
FIG. 18. ATM inhibits proliferation of mPanINs in P48-Cre; LSL-K-ras^G12D mice. Three older P48-Cre; LSL-K-ras^G12D mice (7-9 months of age) were administered ATM (60 mg/kg/day) by IP injection for 10 days. Mice were injected with BrdU prior to sacrifice. Pancreata were isolated and analyzed by IHC for BrdU incorporation, as an indicator of the proliferative activity of the tissue. BrdU incorporation was compared to untreated, age-matched P48-Cre; LSL-K-ras^G12D mice. n=3/group.
as §1
In general terms: Dividing cells build labelled thymidine or BrdU into new DNA.

Another assay relates to Panc-1 cells. In words: In vitro invasion through Matrigel matrix. It counts as cell-based, human. Particulars: 48 hour pre-incubation. On the procedure: as §2, §3

The term IC50 denotes the concentration that inhibits the measured activity by half. Low values mean greater potency, high ones weaker potency. `O=C(O)CC([S-])C(=O)O.[Au+]` (stereo not shown) [ATM, aurothiomalate]: the “pancreatic SHH expression” value in the assay on SHH expression is listed as “significantly reduced”. For the same compound, the IC50 in assay [1] was 20 to 61 µM; in the assay with Panc-1 cells, 7.4 µM. Further, the “proliferation in the mPanINs (BrdU incorporation)” value in assay [2] is listed as “significantly reduced”.
